The target of the first experiment is PRMT5-MTA (Homo sapiens, UniProt O14744). Description: Enzymatic inhibitory activity against PRMT5-MTA (AlphaScreen).
Chain of PRMT5-MTA (O14744 whole entry): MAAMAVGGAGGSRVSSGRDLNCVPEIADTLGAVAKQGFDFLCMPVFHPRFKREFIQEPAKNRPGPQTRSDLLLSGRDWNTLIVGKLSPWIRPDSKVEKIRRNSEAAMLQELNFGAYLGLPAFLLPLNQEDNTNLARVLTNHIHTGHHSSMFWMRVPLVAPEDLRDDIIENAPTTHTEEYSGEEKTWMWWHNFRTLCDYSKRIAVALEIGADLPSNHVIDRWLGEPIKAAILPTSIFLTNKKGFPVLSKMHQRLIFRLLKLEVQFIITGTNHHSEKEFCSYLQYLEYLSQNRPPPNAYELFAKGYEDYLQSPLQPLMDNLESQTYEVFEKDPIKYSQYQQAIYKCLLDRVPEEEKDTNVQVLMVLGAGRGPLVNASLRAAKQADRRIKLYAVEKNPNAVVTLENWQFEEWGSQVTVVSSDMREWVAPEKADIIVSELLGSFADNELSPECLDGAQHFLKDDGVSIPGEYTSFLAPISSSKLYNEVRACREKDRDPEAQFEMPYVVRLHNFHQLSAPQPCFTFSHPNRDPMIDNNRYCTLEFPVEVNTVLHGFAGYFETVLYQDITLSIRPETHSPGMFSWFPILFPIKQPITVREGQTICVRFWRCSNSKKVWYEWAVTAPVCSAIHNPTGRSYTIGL
Chain of PRMT5-MTA (Q9BQA1 whole entry partner): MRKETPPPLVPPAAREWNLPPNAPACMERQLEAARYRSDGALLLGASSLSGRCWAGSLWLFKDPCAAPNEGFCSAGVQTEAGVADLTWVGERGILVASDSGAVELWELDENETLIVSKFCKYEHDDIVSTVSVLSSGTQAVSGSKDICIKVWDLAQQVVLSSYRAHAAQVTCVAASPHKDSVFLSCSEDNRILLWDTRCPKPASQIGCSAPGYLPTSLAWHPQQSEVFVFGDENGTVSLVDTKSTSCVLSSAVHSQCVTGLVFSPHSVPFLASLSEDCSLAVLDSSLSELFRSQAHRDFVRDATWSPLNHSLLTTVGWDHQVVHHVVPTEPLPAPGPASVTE
Settings: not given
The experiment is classed as biochemical. As to the method: The AlphaScreen method was used to detect the enzymatic inhibitory activity of the compounds against PRMT5-MTA. 1 x Methyltransferase assay buffer IV (signalchem) was prepared as a solution for diluting each component for the enzymatic reaction. PRMT5/[…] protein of a final concentration of 1 nM, […] (sigma) of a final concentration of 1 uM and S-(5'-adenosine)-L-methionine chloride dihydrochloride (sigma) of a final concentration of 2.5 uM were mixed, then incubated for 30 minutes at room temperature, and transferred to an OptiPlate-384 well plate (PerkinElmer) at a volume of 6 uL per well, for which no PRMT5/[…] protein was added to the control wells. The test compound was 3-fold serially diluted into 10 concentrations, starting from a concentration of 1000 nM, and the series of diluted compounds were added to all wells except the control wells in the well plate using Tecan D300e. The well plate was subjected to centrifugation for 1 minute at 1000 rpm in a centrifuge, and then incubated for 15 minutes at 23°C. Histone H4 substrate of a final concentration of 5 nM was added to the well plate at 4 uL per well, centrifuged for 1 minute at 1000 rpm in a centrifuge, then placed in an incubator at 23°C and reacted for 45 minutes. Anti-histone H4 (symmetrical dimethyl R3) antibody (Abcam) was incubated with 50 ug/mL of AlphaScreen Protein A Acceptor beads (PerkinElmer) for 10 minutes at room temperature beforehand, and then added to the well plate at a volume of 10 uL per well. The mixture was reacted for 1 hour at room temperature. 50 Ug/mL of AlphaScreen Streptavidin Donor beads (PerkinElmer) was added at 10 uL per well, and reacted for 1 hour at room temperature. The signal values were detected for the well plate through the Alpha method using an Envision multifunctional microplate-reader, and the IC50 values for inhibition of the compounds on PRMT5/MET50 enzyme activity were calculated in Xlfit 5.0 software. Table 1. IC50 values for inhibition of the compounds on PRMT5+MTA enzyme activity
On the technique in general: Bead proximity is the source of the signal in Alpha formats.
As for `Cc1cc2nc(N)c3cnn(C)c3c2cc1C(=O)N(C)N1c2ccccc2CC1C` (stereo not drawn) [Example 280], half-maximal inhibition (IC50) required 4 nM.

The experiment is the same for the next values; noted with them: read-out: IC50.
For `Cc1cc2cc(C(=O)N(Cc3ccc(C(F)(F)F)cn3)N(C)c3nccc4ccccc34)ccc2nc1N` [Example 45, 2-amino-N'-(isoquinol-1-yl)-N',3-dimethyl-N-((5-(trifluoromethyl)pyridin-2-yl)methyl)quinoline-6-carbohydrazide], the IC50 (in general, the concentration that inhibits the measured activity by half) was determined as 3.1 nM.

With `Cc1cc2cc(C(=O)N(Cc3ccc(C(F)(F)F)cn3)n3cnc4cccnc43)ccc2nc1N` [Example 27, 2-amino-N-(3H-imidazo[4,5-b]pyridin-3-yl)-3-methyl-N-((5-(trifluoromethyl)pyridin-2-yl)methyl)quinoline-6-carboxamide], the IC50 is 4 nM.

Take `CC1CN(C(=O)c2cc3c4c(c(N)nc3cn2)COC4)N(c2ncccc2F)C1` (stereo not drawn) [Example 511, (4-amino-1,3-dihydrofuro[3,4-c][1,7]naphthyridin-8-yl)(2-(3-fluoropyridin-2-yl)-4-methylpyrazolidin-1-yl)methanone]: the IC50 came out at 6.1 nM.

For the molecule `Cc1cc2nc(N)c3cnccc3c2cc1C(=O)N1CC(C)CN1c1ncccc1F` (stereo not drawn) [Example 506, (5-amino-8-methylbenzo[C] [2,7]naphthyridin-9-yl)(2-(3-fluoropyridin-2-yl)-4-methylpyrazolidin-1-yl)methanone], the IC50 is 5.8 nM.

`Cc1cc2cc(C(=O)N(Cc3ccc(C(F)(F)F)cn3)N(C)c3cc(C(F)(F)F)ccn3)ccc2nc1N` [Example 43, 2-amino-N',3-dimethyl-N'-(4-(trifluoromethyl)pyridin-2-yl)-N-((5-(trifluoromethyl)pyridin-2-yl)methyl)quinoline-6-carbohydrazide]: the IC50 came to 3.8 nM.

For `Cc1cc2cc(C(=O)N(Cc3ccc(C(F)(F)F)cn3)N(C)c3ncc(I)cn3)ccc2nc1N` [Example 267, 2-amino-N'-(5-iodopyrimidin-2-yl)-N',3-dimethyl-N-((5-(trifluoromethyl)pyridin-2-yl)methyl)quinoline-6-carbohydrazide], the 50% inhibitory concentration (IC50) was 1.8 nM.

Regarding `Cc1cc2cc(C(=O)N(Cc3ccc(C(F)(F)F)cn3)N(C)c3ncccc3C(C)C)ccc2nc1N` [Example 136, 2-amino-N'-(3-isopropylpyridin-2-yl)-N', 3-dimethyl-N-((5-(trifluoromethyl)pyridin-2-yl)methyl)quinoline-6-carbohydrazide], the IC50 turned out to be 3.6 nM.

On to `Cc1cc2cc(C(=O)N(Cc3ccc(C(F)(F)F)cn3)N(C)c3ncc(S(C)(=O)=O)cn3)ccc2nc1N` [Example 96, 2-amino-N',3-dimethyl-N'-(5-(methylsulfonyl)pyrimidin-2-yl)-N-((5-(trifluoromethyl)pyridin-2-yl)methyl)quinoline-6-carbohydrazide], for which the IC50 turned out to be 2.6 nM.

Consider `Cc1cc2nc(N)c3cnn(C)c3c2cc1C(=O)N1CC(C)CN1c1ncccc1OC(F)(F)F` (stereo not drawn) [Example 334, (4-amino-1,7-dimethyl-1H-pyrazolo[4,3-c]quinolin-8-yl)(4-methyl-2-(3-(trifluoromethoxy)pyridin-2-yl)pyrazolidin-1-yl)m ethanone], for which the IC50 stood at 9.2 nM.

For `Cc1cc2cc(C(=O)N(Cc3ccc(-c4nn[nH]n4)cn3)N(C)c3ncccn3)ccc2nc1N` [Example 245, N-((5-(2H-tetrazol-5-yl)pyridin-2-yl)methyl)-2-amino-N',3-dimethyl-N'-(pyrimidin-2-y 1)quinoline-6-carbohydrazide], the IC50 turned out to be 9.5 nM.

As to `Nc1nc2ccc(C(=O)N(Cc3ccc(C(F)(F)F)cn3)N(c3ncccn3)C3CC3)cc2cc1CF` [Example 323, 2-amino-N'-cyclopropyl-3-(fluoromethyl)-N'-(pyrimidin-2-yl)-N-((5-(trifluoromethyl)pyridin-2-yl)methyl)quinoline-6-carbohydrazide], the IC50 was 7.1 nM.

As for `Cc1cc2cc(C(=O)N(Cc3ccc(C(F)(F)F)cn3)N(C)c3nccc4cnn(C)c34)ccc2nc1N` [Example 275, 2-amino-N',3-dimethyl-N'-(1-methyl-1H-pyrazolo[3,4-c]pyridin-7-yl)-N-((5-(trifluoromethyl)pyridin-2-yl)methyl)quinoline-6-carbohydrazide], the IC50 is 2.9 nM.

For the molecule `COc1cc2cc(C(=O)N(Cc3ccc(C(F)(F)F)cn3)N(C)c3ncccn3)ccc2nc1N` [Example 319, 2-amino-3-methoxy-N'-methyl-N'-(pyrimidin-2-yl)-N-((5-(trifluoromethyl)pyridin-2-yl)methyl)quinoline-6-carbohydrazide], the IC50 turned out to be 4.7 nM.

With `COC1CN(C(=O)c2cc3c(cc2Cl)nc(N)c2cnn(C)c23)N(c2cc(F)ccc2F)C1` (stereo not drawn) [Example 440, (4-amino-7-chloro-1-methyl-1H-pyrazolo [4,3-c]quinolin-8-yl)(2-(2,5-difluorophenyl)-4-methoxypyrazolidin-1-yl)methanone], the IC50 worked out at 3.7 nM.

Take `Cc1cc2nc(N)c3cnn(C)c3c2cc1C(=O)N1C(C)CCN1c1ncccn1` (stereo not drawn) [Example 373, (4-amino-1,7-dimethyl-1H-pyrazolo[4,3-c]quinolin-8-yl)(5-methyl-2-(pyrimidin-2-yl)pyrazolidin-1-yl)methanone]: the IC50 was found to be 7.5 nM.

In the case of `Cc1cc2nc(N)c3cnn(C)c3c2cc1C(=O)N1CC(C)CN1c1ncc(C#N)cc1F` (stereo not drawn) [Example 371, 6-(2-(4-amino-1,7-dimethyl-1H-pyrazolo [4,3-c]quinoline-8-formyl)-4-methylpyrazolidin-1-yl)-5-fluoronicotinonitrile], the IC50 is 5.5 nM.

Regarding `Cc1cc2cc(C(=O)N(Cc3ncccc3C(F)(F)F)N(C)c3ncccn3)ccc2nc1N` [Example 41, 2-amino-N',3-dimethyl-N'-(pyrimidin-2-yl)-N-((3-(trifluoromethyl)pyridin-2-yl)methyl)quinoline-6-carbohydrazide], the IC50 was 3.9 nM.

On to `Cc1cc2nc(N)c3cnn(C)c3c2cc1C(=O)N1CCC(=O)N1c1ccc(C(F)(F)F)cn1` [Example 463, 1-(4-amino-1,7-dimethyl-1H-pyrazolo[4,3-c]quinoline-8-carbonyl)-2-(5-(trifluoromethyl)pyridin-2-yl)pyrazolidin-3-one], for which the IC50 is 1.3 nM.

Take `COCCN(c1ncccn1)N(Cc1ccc(C(F)(F)F)cn1)C(=O)c1ccc2nc(N)c(C)cc2c1` [Example 4, 2-amino-N'-(2-methoxyethyl)-3-methyl-N'-(pyrimidin-2-yl)-N-((5-(trifluoromethyl)pyridin-2-yl)methyl)quinoline-6-carbohydrazide]: the IC50 is 2 nM.

Turning to `COc1cc2nc(N)c3cnn(C)c3c2cc1C(=O)N1CCCN1c1ncccc1F` [Example 498, (4-amino-7-methoxy-1-methyl-1H-pyraz olo[4,3-c]quinolin-8-yl)(2-(3-fluoropyridin-2-yl)pyrazolidin-1-yl)methanone], the IC50 worked out at 5 nM.

As for `CN(c1ncccn1)N(Cc1ccc(C(F)(F)F)cn1)C(=O)c1ccc2nc(N)c3c(c2c1)COC3` [Example 12, 4-amino-N'-methyl-N'-(pyrimidin-2-yl)-N-((5-(trifluoromethyl)pyridin-2-yl)methyl)-1,3-dihydrofuro[3,4-c]quinoline-8-car bohydrazide], the IC50 was 7.8 nM.

Consider `Cc1cc2nc(N)c3cnn(C)c3c2cc1C(=O)N(Cc1ccc(-c2scnc2C)cn1)N(c1ncccn1)C1CC1` [Example 251, 4-amino-N'-cyclopropyl-1,7-dimethyl-N-((5-(4-methylthiazol-5-yl)pyridin-2-yl)methyl)-N'-(pyrimidin-2-yl)-1H-pyrazolo[4 ,3-c]quinoline-8-carbohydrazide], for which the IC50 was found to be 4.1 nM.

Take `Cc1ncsc1-c1ccc(CN(C(=O)c2ccc3nc(N)c(CF)cc3c2)N(c2ncccn2)C2CC2)nc1` [Compound 324, 2-amino-N'-cyclopropyl-3-(fluoromethyl) -N-((5-(4-methylthiazol-5-yl)pyridin-2-yl)methyl)-N'-(pyrimidin-2-yl)quinoline-6-carbohydrazide]: the IC50 came to 4.4 nM.

Turning to `Cc1ncsc1-c1ccc(CN(C(=O)c2ccc3nc(N)c4cnn(C)c4c3c2)N(c2ncccn2)C2CC2)nc1` [Example 252, 4-amino-N'-cyclopropyl-1-methyl-N-((5-(4-methylthiazol-5-yl)pyridin-2-yl)methyl)-N'-(pyrimidin-2-yl)-1H-pyrazolo[4,3-c] quinoline-8-carbohydrazide], the IC50 came out at 4.8 nM.

For the molecule `CCn1ncc2c(N)nc3cc(C)c(C(=O)N4CC(C)CN4c4ncccc4F)cc3c21` (stereo not drawn) [Example 503, (4-amino-1-ethyl-7-methyl-1H-pyrazolo[4,3-c]quinolin-8-yl)(2-(3-fluoropyridin-2-yl)-4-methylpyrazolidin-1-yl)methanone], the IC50 amounted to 5.2 nM.

As to `Cc1cc2nc(N)c3cnn(C)c3c2cc1C(=O)N1CC(c2ccccc2)CN1c1ncccc1F` (stereo not drawn) [Example 409, (4-amino-1,7-dimethyl-1H-pyrazolo[4,3-c]quinolin-8-yl)(2-(3-fluoropyridin-2-yl)-4-phenylpyrazolidin-1-yl)methanone], the IC50 stood at 3.1 nM.

The values are drawn from patent EP4745134A1 (Jiangsu Yahong Meditech Co., Ltd., priority 2023, dated 2025).
